Like-named read-outs stand apart in the source and are kept apart here.
Tested on: rat trachea rings
Assay: Tracheal relaxation assay (carbachol precontracted rings);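 note: isometric tension of rat tracheal rings in Krebs buffer with 1 µM indomethacin, compounds added cumulatively at 30 min intervals, basal tension subtracted, fit to Hill equation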
Details: for Percentage of carbachol-induced contraction at 10 μM compound, Avg % / Percentage of carbachol-induced contraction at 1 μM compound, Avg %: 1 μM carbachol; for IC50: read-out: IC50 Avg; for Trachael Ring Contraction, %: average percentage of carbachol-induced rat tracheal ring contraction at 1 μM of test compound
[1] = relaxation of 1 μM carbachol precontracted rat tracheal rings

Method: The effects of compounds to induce relaxation of pre-contracted rat trachealis were determined. […] Trachea were excised, cleaned of connective tissue and cut into cylindrical segments of 2-3 mm length. Two stainless steel wires were guided through the lumen of the tracheal ring. One wire was fixed in the tissue bath and the other was connected to a force transducer via surgical silk. […] Indomethacin (1 μM), a cyclooxygenase inhibitor, was added to the Krebs buffer and was present throughout the experiments. Contractile tensions were measured using an isometric force transducer (Grass Instruments) and signals were analyzed using specialized software (Chart v5.5, ADInstruments). The preparations were allowed to equilibrate at a resting tension of 0.3 to 0.5 gm prior to two challenges with 60 mM KCl to assess tissue viability. After washing, tissues were treated with 1 μM carbachol for 10 to 15 minutes to induce a contractile response. Test Compounds were added cumulatively to the bath every 30 minutes and reductions in tension were recorded. Basal tension was subtracted from all values and data were reported as a percentage of the maximal carbachol-induced contraction. Data were fit to the Hill equation using GraphPad Prism v5 software.

Compound	Percentage of carbachol-induced contraction at 10 μM compound, Avg %	Percentage of carbachol-induced contraction at 1 μM compound, Avg %	Trachael Ring Contraction, %	further results
CS(=O)(=O)Nc1cccc(CN2CCC[C@H](Nc3cccc4cnccc34)C2)c1 [Compound 2.037, (S)-N-(3-((3-(isoquinolin-5-ylamino)piperidin-1-yl)methyl)phenyl)methanesulfonamide]	21.3%			IC50 (Rattus norvegicus): 2120 nM
Clc1ccc(CN2CCC[C@H](Nc3ccc4[nH]ncc4c3)C2)cc1 [Compound 1.141, (S)-N-(1-(4-chlorobenzyl)piperidin-3-yl)-1H-indazol-5-amine]		35.3%	35%	
Clc1ccc(CN2CCC[C@@H](Nc3ccc4[nH]ncc4c3)C2)cc1 [Compound 1.132, (R)-N-(1-(4-chlorobenzyl)piperidin-3-yl)-1H-indazol-5-amine]		42.4%	42%	
Cc1ccc(CN2CCC[C@@H](Nc3ccc4[nH]ncc4c3)C2)cc1O [Compound 1.173, (R)-5-((3-(1H-indazol-5-ylamino)piperidin-1-yl)methyl)-2-methylphenol]		32.8%	33%	
C#Cc1cccc(CN2CCC[C@H](Nc3ccc4[nH]ncc4c3)C2)c1 [Compound 1.153, (S)-N-(1-(3-ethynylbenzyl)piperidin-3-yl)-1H-indazol-5-amine]		40.9%	41%	
Cc1cncc2cccc(S(=O)(=O)N3CCCNC[C@@H]3C)c12 [Compound H-1152, reference compound]	−6.5%			
O=S(=O)(c1cccc2cnccc12)N1CCCNCC1 [Fasudil, reference compound]				Percentage of carbachol-induced contraction at 10 μM compound, Avg % (listed as fasudil): 43.0%; IC50 Avg [1]: could not be obtained
c1cc2cc(CN3CCC[C@H](Nc4ccc5[nH]ncc5c4)C3)ccc2[nH]1 [Compound 1.149, (S)-N-(1-((1H-indol-5-yl)methyl)piperidin-3-yl)-1H-indazol-5-amine]		34.4%	34%	
Cc1ccc(CN2CCC[C@H](Nc3ccc4[nH]ncc4c3)C2)cc1O [Compound 1.151, (S)-5-((3-(1H-indazol-5-ylamino)piperidin-1-yl)methyl)-2-methylphenol]		33.1%		
NC(=O)Cn1ccc2ccc(CN3CCC[C@H](Nc4ccc5[nH]ncc5c4)C3)cc21 [Compound 1.107, (S)-2-(6-((3-(1H-indazol-5-ylamino)piperidin-1-yl)methyl)-1H-indol-1-yl)acetamide]	9.9%			IC50 (Rattus norvegicus): 1240 nM
CSc1ccc(CN2CCC[C@H](Nc3ccc4[nH]ncc4c3)C2)cc1 [Compound 1.075, (S)-N-(1-(4-(methylthio)benzyl)piperidin-3-yl)-1H-indazol-5-amine]		39.1%	39%	
c1cc2cc(CN3CCC[C@H](Nc4ccc5[nH]ncc5c4)C3)ccc2o1 [Compound 1.150, (S)-N-(1-(benzofuran-5-ylmethyl)piperidin-3-yl)-1H-indazol-5-amine]		39.7%	40%	
CS(=O)(=O)Nc1cc(CN2CCC[C@@H](Nc3ccc4[nH]ncc4c3)C2)ccc1Cl [Compound 1.212, (R)-N-(5-((3-(1H-indazol-5-ylamino)piperidin-1-yl)methyl)-2-chlorophenyl)methanesulfonamide]		40.1%	40%	
CCOC(=O)COc1cccc(CN2CCC[C@H](Nc3ccc4[nH]ncc4c3)C2)c1 [Compound 1.200, (S)-ethyl 2-(3-((3-(1H-indazol-5-ylamino)piperidin-1-yl)methyl)phenoxy)acetate]		91.5%	92%	
CCS(=O)(=O)Nc1cccc(CN2CCC[C@@H](Nc3ccc4[nH]ncc4c3)C2)c1 [Compound 1.123, (R)-N-(3-((3-(1H-indazol-5-ylamino)piperidin-1-yl)methyl)phenyl)ethanesulfonamide]	4.6%	46.7%	47%	IC50 (Rattus norvegicus): 45 nM
Cc1ccc(CN2CCC[C@H](Nc3ccc4[nH]ncc4c3)C2)cc1OCCO [Compound 1.152, (S)-2-(5-((3-(1H-indazol-5-ylamino)piperidin-1-yl)methyl)-2-methylphenoxy)ethanol]		34.4%	34%	
CS(=O)(=O)Nc1cc(CN2CCC[C@H](Nc3ccc4[nH]ncc4c3)C2)ccc1Cl [Compound 1.213, (S)-N-(5-((3-(1H-indazol-5-ylamino)piperidin-1-yl)methyl)-2-chlorophenyl)methanesulfonamide]		29.3%	29%	
CCS(=O)(=O)Nc1cccc(CN2CC[C@@H](Nc3cccc4cnccc34)C2)c1 [Compound 2.041, (R)-N-(3-((3-(isoquinolin-5-ylamino)pyrrolidin-1-yl)methyl)phenyl)ethanesulfonamide]	−5.4%			IC50 (Rattus norvegicus): 162 nM
CSc1ccc(CN2CCC[C@@H](Nc3ccc4[nH]ncc4c3)C2)cc1 [Compound 1.074, (R)-N-(1-(4-(methylthio)benzyl)piperidin-3-yl)-1H-indazol-5-amine]	−15.1%	39.6%	40%	IC50 (Rattus norvegicus): 729 nM
CCS(=O)(=O)Nc1cccc(CN2CCC[C@H](Nc3ccc4[nH]ncc4c3)C2)c1 [Compound 1.124, (S)-N-(3-((3-(1H-indazol-5-ylamino)piperidin-1-yl)methyl)phenyl)ethanesulfonamide]	19.7%	37.8%	38%	IC50 (Rattus norvegicus): 21 nM
O=C(O)COc1cccc(CN2CCC[C@H](Nc3ccc4[nH]ncc4c3)C2)c1 [Compound 1.196, (S)-2-(3-((3-(1H-indazol-5-ylamino)piperidin-1-yl)methyl)phenoxy)acetic acid]		96.2%		
Cc1ccc(CN2CCC[C@H](Nc3cccc4cnccc34)C2)cc1 [Compound 2.045, (S)-N-(1-(4-methylbenzyl)piperidin-3-yl)isoquinolin-5-amine]	13.6%			IC50 (Rattus norvegicus): 2720 nM
Cc1ccc(CN2CCC[C@H](Nc3ccc4[nH]ncc4c3)C2)cc1 [Compound 1.078, (S)-N-(1-(4-methylbenzyl)piperidin-3-yl)-1H-indazol-5-amine]		39.6%		
CC(=O)NCc1cccc(CN2CCC[C@H](Nc3ccc4[nH]ncc4c3)C2)c1 [Compound 1.197]		41.7%	42%	
NCc1cccc(CN2CCC[C@H](Nc3ccc4[nH]ncc4c3)C2)c1 [Compound 1.184, (S)-N-(1-(3-(aminomethyl)benzyl)piperidin-3-yl)-1H-indazol-5-amine]		88.6%		
c1cc2ccc(CN3CCC[C@H](Nc4ccc5[nH]ncc5c4)C3)cc2[nH]1 [Compound 1.148, (S)-N-(1-((1H-indol-6-yl)methyl)piperidin-3-yl)-1H-indazol-5-amine]		51.2%	51%	
C[C@@H](N)c1ccc(C(=O)Nc2ccnc3[nH]ccc23)cc1 [Compound Y-39983, reference compound]	−6.0%	26.5%		IC50 [1]: 190 nM
Oc1cccc(CN2CCC[C@H](Nc3ccc4[nH]ncc4c3)C2)c1 [Compound 1.163, (S)-3-((3-(1H-indazol-5-ylamino)piperidin-1-yl)methyl)phenol]		35.4%	35%	
Fc1ccc(CN2CCC[C@H](Nc3ccc4[nH]ncc4c3)C2)cc1F [Compound 1.072, (S)-N-(1-(3,4-difluorobenzyl)piperidin-3-yl)-1H-indazol-5-amine]		33.1%		

Source: US20130172324A1, “METHOD FOR TREATING CARDIOVASCULAR DISEASES USING RHO KINASE INHIBITOR COMPOUNDS” (priority 2008, published 2013)
